Laboratory results taken from patent US6462072B1, “Cyclic ester or amide derivatives” (GPI NIL Holdings, Inc., priority 1998, dated 2002).
pKi: −log10 of the molar value.

Target: FKBP (Homo sapiens, UniProt P62942)
Assay: Ki test procedure: inhibition of peptidyl-prolyl isomerase (rotamase) activity, chymotrypsin-coupled assay
Format: biochemical
Conditions: read-out: Ki (apparent Ki, rotamase inhibition)
From the text: Inhibition of the peptidyl-prolyl isomerase (rotamase) activity of the inventive compounds can be evaluated by known methods described in the literature (Harding, M. W. et al. Nature 341: 758-760 (1989); Holt et al. J. Am. Chem. Soc. 115: 9923-9938). These values are obtained as apparent Ki's and are presented in Table I. The cis-trans isomerization of an alanine-proline bond in a model substrate, N-succinyl-Ala-Ala-Pro-Phe-p-nitroanilide, is monitored spectro-photometrically in a chymotrypsin-coupled assay, which releases para-nitroanilide from the trans form of the substrate. The inhibition of this reaction caused by the addition of different concentrations of inhibitor is determined, and the data is analyzed as a change in first-order rate constant as a function of inhibitor concentration to yield the apparent Kivalues.
In a plastic cuvette are added […] of ice cold assay buffer (25 mM HEPES, pH 7.8, 100 mM NaCl), […] of FKBP (2.5 mM in 10 mM Tris-Cl pH 7.5, 100 mM NaCl, 1 mM dithiothreitol), […] of chymotrypsin (50 mg/mL in 1 mM HCl) and 10 mL of test compound at various concentrations in dimethyl sulfoxide. […]
The absorbance at 390 nm versus time is monitored for 90 sec using a spectrophotometer and the rate constants are determined from the absorbance versus time data files.

FKBP, sequence (P62942 whole entry): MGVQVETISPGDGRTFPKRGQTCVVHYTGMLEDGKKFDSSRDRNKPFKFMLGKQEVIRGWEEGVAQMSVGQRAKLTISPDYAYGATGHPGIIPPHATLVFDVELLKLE

SMILES: CCC(C)(C)C(=O)C(=O)N1CCC[C@H]1C(=O)OC1CCC(c2ccccc2)(c2ccccc2)CC1 [4,4-diphenylcyclohexl (2S)-1-(3,3-dimethyl-2-oxopentanoyl)-pyrrolidine-2-carboxylate]
- pKi: 5.25
